Data taken from publication PMC5905968, “Evaluation of the fusion inhibitor P3 peptide as a potential microbicide to prevent HIV transmission in women” (PLoS ONE, 2018).

What was measured:
[1] = test system: vaginal epithelium of BALB/c mice; assay: BALB/c mice vaginal irritation test with histological score; assay type: in vivo; parameters: key to Epithelial lesion / Inflammatory infiltrate / Vascular congestion / Edema/fibrosis / Total Score: 0 (no change) when no injury or the observed changes were within normal range; 1 (minimum) when changes were sparse but exceeded those considered normal; 2 (light) when injuries were identifiable but with no severity; 3 (moderate) for significant injury that could increase in severity; 4 (very serious) for very serious injuries that occupy most of the analyzed tissue; details: for Edema/fibrosis / Epithelial lesion / Inflammatory infiltrate / Vascular congestion / Total Score: 7 days; for Total Score: sum of the four lesion scores
Protocol: Female BALB/c mice (6–8 weeks-old) (Charles River Laboratories, Wilmington, MA) were pretreated subcutaneously with 2mg of medroxyprogesterone acetate (Depo-Provera; Pfizer, NY, USA) in PBS (Lonza, Verviers, Belgium). After five days, 30μl of test formulation with different doses of P3 diluted in PBS was applied intravaginally daily for 7 days by vaginal gavage to animals previously anesthetized with isoflurane (Forane, Abbott, Madrid). Controls included mice that received PBS (placebo group) and 3% nonoxynol-9 (N9) in PBS (irritation control group). On the eighth day, mice were sacrificed and genital tract tissue were extracted and fixed in 4% paraformaldehyde for histological analysis. The animals were distributed in groups of three mice each: group placebo only treated with PBS (1–3), group A treated with dose of 0.06mg/day ([…]) of P3 in PBS (4–6), group B treated with dose of 0.2mg/day (1522.7 μM) of P3 in PBS (7–9), group C treated with dose of 0.4mg/day (3045.3 μM) of P3 in PBS (10–12) and group irritation control treated with 3% N9 in PBS (13–15).
The presence of histological lesions in the mouse vaginas was evaluated with hematoxylin-eosin staining. Samples were embedded in paraffin by submersion in increasing concentrations of ethanol in water (Rectapur, VWR, England), two baths of xylene (Analar (VWR, England) and another of paraffin, before being placed in a paraffin mold. Subsequently, they were cut using a semimotorized microtome (RM2145 Leica, Germany) and processed for staining. For dewaxing, samples were submersed into two baths of xylene solution (10 min) and three baths in descending order of ethanol (100%, 90% and 70%) (5 min), before being stained with hematoxylin (Merck, Germany) for 5 min and eosin (Merck, Germany) for another 5 min. Post-eosin staining dehydration was performed with passages in increasing concentrations of ethanol (70%, 90% and 100%) and a bath of xylene solution. Finally, they were mounted with D.P.X. (Prolabo, VWR, Spain).
The existence of injury in vaginal epithelium, inflammatory infiltrate, vascular congestion and/or edema in the submucosa was evaluated in each biological sample. The values (score) assigned for each of these lesions were: 0 (no change) when no injury or the observed changes were within normal range; 1 (minimum) when changes were sparse but exceeded those considered normal; 2 (light) when injuries were identifiable but with no severity; 3 (moderate) for significant injury that could increase in severity; 4 (very serious) for very serious injuries that occupy most of the analyzed tissue. These values were added up and determined the level of vaginal irritation as minimum 1–4, average 5–8, moderate 9–11 and severe 12–16 [34].

Lactobacillus rhamnosus = assay: Anti-bacterial activity, MIC by agar diffusion; assay type: cell-based; details: disks, Rogosa agar, 37°C, microaerophilic, maximum concentration tested 228.4 μM
Protocol: (§1) Anti-bacterial activity of P3 was determined according to CLSI guidelines. The following bacteria were used: reference strains E. coli ATCC 10536, Staphylococcus aureus ATCC 6538, Bacillus subtilis ATCC 6633 and Enterococcus faecalis ATCC 29212; clinical strains of E. coli and Pseudomonas aeruginosa isolated in our laboratory; and strains of Lactobacillus rhamnosus and Lactobacillus plantarum also isolated in our laboratory. The Minimum Inhibitory Concentration (MIC) was determined by the agar diffusion method, in plates of Mueller-Hinton agar or Rogosa agar (for Lactobacilli). Briefly, 10^8cfu/ml bacterial suspensions were prepared in sterile water and spread in the culture media. Sterile disks containing different concentrations of P3 were placed on the inoculated surface. Plates were incubated at 37°C for 24h or 48h. Lactobacilli were incubated at microaerophilic conditions. A negative control made of sterile water was used. Disks of amoxicillin and imipenem were used as positive controls.

Lactobacillus plantarum = assay: Anti-bacterial activity, MIC by agar diffusion; assay type: cell-based; details: disks, Rogosa agar, 37°C, microaerophilic, maximum concentration tested 228.4 μM
Protocol: as §1

E. coli ATCC 10536 = assay: Anti-bacterial activity, MIC by agar diffusion; assay type: cell-based; details: disks, Mueller-Hinton agar, 37°C, maximum concentration tested 228.4 μM
Protocol: as §1

[2] = test system: Staphylococcus aureus ATCC 6538; assay: Anti-bacterial activity, MIC by agar diffusion; assay type: cell-based; details: disks, Mueller-Hinton agar, 37°C, maximum concentration tested 228.4 μM
Protocol: as §1

[3] = test system: E. coli (clinical strain); assay: Anti-bacterial activity, MIC by agar diffusion; assay type: cell-based; details: disks, Mueller-Hinton agar, 37°C, maximum concentration tested 228.4 μM
Protocol: as §1

[4] = test system: Pseudomonas aeruginosa (clinical strain); assay: Anti-bacterial activity, MIC by agar diffusion; assay type: cell-based; details: disks, Mueller-Hinton agar, 37°C, maximum concentration tested 228.4 μM
Protocol: as §1

[5] = test system: Enterococcus faecalis ATCC 29212; assay: Anti-bacterial activity, MIC by agar diffusion; assay type: cell-based; details: disks, Mueller-Hinton agar, 37°C, maximum concentration tested 228.4 μM
Protocol: as §1

[6] = test system: Bacillus subtilis ATCC 6633; assay: Anti-bacterial activity, MIC by agar diffusion; assay type: cell-based; details: disks, Mueller-Hinton agar, 37°C, maximum concentration tested 228.4 μM
Protocol: as §1

[7] = 456 μM/day P3 in PBS intravaginally, mouse 4
[8] = 456 μM/day P3 in PBS intravaginally, mouse 5
[9] = 456 μM/day P3 in PBS intravaginally, mouse 6
[10] = 1522.7 μM/day P3 in PBS intravaginally, mouse 7
[11] = 1522.7 μM/day P3 in PBS intravaginally, mouse 8
[12] = 1522.7 μM/day P3 in PBS intravaginally, mouse 9
[13] = 3045.3 μM/day P3 in PBS intravaginally, mouse 10
[14] = 3045.3 μM/day P3 in PBS intravaginally, mouse 11
[15] = 3045.3 μM/day P3 in PBS intravaginally, mouse 12

Which results are given for `CC[C@H](C)[C@H](NC(=O)[C@H](CC(N)=O)NC(=O)[C@H](C)NC(=O)[C@H](CCC(=O)O)NC(=O)[C@H](CC(C)C)NC(=O)[C@H](Cc1ccc(O)cc1)NC(=O)[C@H](CCCNC(=N)N)NC(=O)[C@@H](NC(=O)[C@H](CCC(N)=O)NC(=O)[C@H](CCC(N)=O)NC(=O)[C@H](CCC(=O)O)NC(=O)[C@H](Cc1c[nH]c2ccccc12)NC(=O)[C@H](CCC(=O)O)NC(=O)[C@H](CCC(N)=O)NC(=O)[C@H](Cc1c[nH]c2ccccc12)NC(C)=O)C(C)C)C(=O)N[C@@H](CO)C(=O)N[C@@H](CCC(N)=O)C(=O)N[C@@H](CCCNC(=N)N)C(=O)N[C@@H](CC(C)C)C(=O)N[C@@H](CCC(=O)O)C(=O)N[C@@H](CCC(N)=O)C(=O)N[C@@H](C)C(=O)N[C@@H](CCC(N)=O)C(=O)N[C@H](C(=O)N[C@@H](CCC(N)=O)C(=O)N[C@@H](CCC(N)=O)C(=O)N[C@@H](CCC(=O)O)C(=O)N[C@@H](CCCCN)C(=O)N[C@@H](CC(N)=O)C(=O)N[C@@H](CCSC)C(=O)N[C@@H](Cc1ccc(O)cc1)C(=O)N[C@@H](CCC(=O)O)C(=O)N[C@@H](CC(C)C)C(=O)N[C@@H](CCC(N)=O)C(N)=O)[C@@H](C)CC` [P3]?
Edema/fibrosis [1, 7]: 0; Epithelial lesion [1, 7]: 1; Inflammatory infiltrate [1, 7]: 0; Vascular congestion [1, 7]: 1; Total Score [1, 7]: 2; Edema/fibrosis [1, 8]: 1; Epithelial lesion [1, 8]: 1; Inflammatory infiltrate [1, 8]: 1; Vascular congestion [1, 8]: 0; Total Score [1, 8]: 3; Edema/fibrosis [1, 9]: 0; Epithelial lesion [1, 9]: 0; Inflammatory infiltrate [1, 9]: 0; Vascular congestion [1, 9]: 0; Total Score [1, 9]: 0; Edema/fibrosis [1, 10]: 0; Epithelial lesion [1, 10]: 1; Inflammatory infiltrate [1, 10]: 1; Vascular congestion [1, 10]: 1; Total Score [1, 10]: 3; Edema/fibrosis [1, 11]: 0; Epithelial lesion [1, 11]: 0; Inflammatory infiltrate [1, 11]: 0; Vascular congestion [1, 11]: 1; Total Score [1, 11]: 1; Edema/fibrosis [1, 12]: 0; Epithelial lesion [1, 12]: 0; Inflammatory infiltrate [1, 12]: 2; Vascular congestion [1, 12]: 2; Total Score [1, 12]: 4; Edema/fibrosis [1, 13]: 0; Epithelial lesion [1, 13]: 4; Inflammatory infiltrate [1, 13]: 3; Vascular congestion [1, 13]: 3; Edema/fibrosis [1, 14]: 0; Epithelial lesion [1, 14]: 2; Inflammatory infiltrate [1, 14]: 0; Vascular congestion [1, 14]: 1; Total Score [1, 14]: 3; Edema/fibrosis [1, 15]: 1; Epithelial lesion [1, 15]: 4; Inflammatory infiltrate [1, 15]: 2; Vascular congestion [1, 15]: 2; injuries (histology) ([1]; group A, 0.06 mg/day (456.8 μM) P3, 7 days): minimal or even absent; level of irritation of the vaginal wall ([1]; group B, 0.2 mg/day (1522.7 μM) P3, 7 days): minimal; score of vaginal irritation ([1]; group C, 0.4 mg/day (3045.3 μM) P3, 7 days, mice 10 and 12): moderate (moderate 9–11); irritation of the vaginal epithelium ([1]; group C, 0.4 mg/day (3045.3 μM) P3, 7 days, the other mouse (sample 11)): minimal; MIC (Lactobacillus rhamnosus): > 228.4 µM; MIC (Lactobacillus plantarum): > 228.4 µM; MIC (E. coli ATCC 10536): > 228.4 µM; MIC [2]: > 228.4 µM; MIC [3]: > 228.4 µM; MIC [4]: > 228.4 µM; MIC [5]: > 228.4 µM; MIC [6]: > 228.4 µM
